The values that follow come from patent US20200197409A1, “HEPATITIS B VIRUS SURFACE ANTIGEN INHIBITOR” (FUJIAN COSUNTER PHARMACEUTICAL CO., LTD., priority 2017, published 2020).

The structures appear in SMILES notation.

Holding throughout (format): in vitro ADME
In one data set the target is T1, CYP3A4-M (Homo sapiens, UniProt P08684).
T1 construct: from tissue; host or cells: human liver microsomes
Briefly: Inhibition of cytochrome P450 isoenzyme in human liver microsomes. Here is the method: (§1) The inhibitory effect of the test compound on different subtypes of human cytochrome P450 isoenzyme was determined. Working solutions of the test compound, standard inhibitor (100×final concentration) and a mixed substrate were prepared. Microsomes frozen in a −80° C. refrigerator were thawed. 2 μL of test compound and the standard inhibitor solution were added into the corresponding wells, while 2 μL of the corresponding solvent was added into the non-inhibitor control well (NIC) and the blank control well (Blank). 20 μL of the mixed substrate solution was added into the corresponding wells except for the Blank well (20 μL of PB was added into the Blank well). Human liver microsomes solution was prepared (it was put back to the refrigerator immediately after use and the date was marked) and 158 μL of human liver microsomes solution were added into all of the wells immediately. The sample plate was pre-incubated under a 37° C. water bath, during which coenzyme factor (NADPH) solution was prepared immediately. After 10 minutes, 20 μL of coenzyme factor (NADPH) solution was added into all of the wells. After the sample plate was shaken evenly, it was incubated under a 37° C. water bath for 10 minutes. 400 μL of cold acetonitrile solution (the internal standard was 200 ng/mL Tolbutamide and Labetalol) was added to terminate the reaction at the corresponding time. After the sample plate was well-mixed, it was centrifuged at 4,000 rpm for 20 minutes to precipitate the protein. 200 μL of the supernatant was collected and added to 100 μL of water, and subjected to LC/MS/MS measurement after being shaken evenly.

The target of another data set is T2, CYP2C19 (Homo sapiens, UniProt P33261).
T2 construct: from tissue; host or cells: human liver microsomes
Described as above. The method, then:
as §1

The next data set concerns the target T3, CYP2D6 (Homo sapiens, UniProt P10635).
T3 construct: from tissue; host or cells: human liver microsomes
Described as above. Here is the method:
as §1

The target of the next data set is T4, CYP2C9 (Homo sapiens, UniProt P11712).
T4 construct: from tissue; host or cells: human liver microsomes
The description is as above. Here is the method:
as §1

In another data set the target is T5, CYP1A2 (Homo sapiens, UniProt P05177).
T5 construct: from tissue; host or cells: human liver microsomes
T5 sequence (P05177 1-516): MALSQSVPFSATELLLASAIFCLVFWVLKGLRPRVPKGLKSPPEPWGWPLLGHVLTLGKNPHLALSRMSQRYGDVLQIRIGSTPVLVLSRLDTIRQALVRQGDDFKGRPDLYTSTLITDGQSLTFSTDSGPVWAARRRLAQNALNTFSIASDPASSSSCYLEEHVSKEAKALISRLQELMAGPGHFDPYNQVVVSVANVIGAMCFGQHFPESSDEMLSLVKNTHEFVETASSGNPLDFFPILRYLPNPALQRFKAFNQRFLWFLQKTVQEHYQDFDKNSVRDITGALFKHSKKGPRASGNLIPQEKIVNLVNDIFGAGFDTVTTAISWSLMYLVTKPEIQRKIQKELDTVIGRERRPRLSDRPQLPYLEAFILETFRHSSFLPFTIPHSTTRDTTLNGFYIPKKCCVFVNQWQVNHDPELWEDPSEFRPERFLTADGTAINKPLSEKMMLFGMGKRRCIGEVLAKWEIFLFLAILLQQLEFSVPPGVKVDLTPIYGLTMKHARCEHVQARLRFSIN
The description is as above. Here is the method:
as §1

Data set [1] can be described thus: Plasma protein binding rate, SD rat plasma. Particulars: plasma of SD rat, dialysis 4 hours at 37° C. The method, then:
The protein binding rate of Embodiment 6 in the plasma of human, CD-1 mouse and SD rat was determined, 796 μL of blank plasma was taken from human, CD-1 mice and SD rats, and 4 μL of test compound working solution (400 μM) or warfarin working solution (400 μM) was added to achieve a final concentration of the test compound and the warfarin in plasma samples of 2 μM. The samples were mixed thoroughly. The final concentration of organic phase DMSO was 0.5%, 50 μL of the test compound and warfarin plasma sample were transferred into sample receiving plates (three parallels), and a relative volume of corresponding blank plasma or buffer was immediately added, ensuring that the final volume of each sample well was 100 μL, and the volume ratio of plasma to dialysis buffer was 1:1. 400 μL of stop solution was added to these samples, which was used as a T0 sample for the determination of recovery and stability. […] The protein binding rate and the recovery rate were calculated by the formulas: % Protein unbinding rate (%)=100*Drug concentration through the dialysis membrane/drug concentration not through the dialysate: Protein binding rate (%)=100-% protein unbinding rate: % Recovery=100*(Drug concentration through the dialysis membrane+Drug concentration not through the dialysate)/Total drug concentration before undialysis. Protein binding rate and recovery rate were calculated.

T3 sequence (P10635 whole entry): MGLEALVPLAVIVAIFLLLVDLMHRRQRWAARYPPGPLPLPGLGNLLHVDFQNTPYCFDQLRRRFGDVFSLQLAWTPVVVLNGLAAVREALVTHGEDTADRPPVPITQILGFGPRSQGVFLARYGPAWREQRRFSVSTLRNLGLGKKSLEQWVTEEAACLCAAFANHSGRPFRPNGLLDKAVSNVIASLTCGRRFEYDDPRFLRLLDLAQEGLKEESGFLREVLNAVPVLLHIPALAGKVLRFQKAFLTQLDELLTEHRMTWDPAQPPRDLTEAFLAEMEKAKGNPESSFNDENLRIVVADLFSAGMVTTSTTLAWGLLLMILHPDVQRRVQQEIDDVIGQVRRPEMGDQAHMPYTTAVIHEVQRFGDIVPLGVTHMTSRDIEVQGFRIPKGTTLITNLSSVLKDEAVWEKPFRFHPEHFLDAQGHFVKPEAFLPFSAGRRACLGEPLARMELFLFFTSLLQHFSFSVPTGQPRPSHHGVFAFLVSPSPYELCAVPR
T2 sequence (P33261 whole entry): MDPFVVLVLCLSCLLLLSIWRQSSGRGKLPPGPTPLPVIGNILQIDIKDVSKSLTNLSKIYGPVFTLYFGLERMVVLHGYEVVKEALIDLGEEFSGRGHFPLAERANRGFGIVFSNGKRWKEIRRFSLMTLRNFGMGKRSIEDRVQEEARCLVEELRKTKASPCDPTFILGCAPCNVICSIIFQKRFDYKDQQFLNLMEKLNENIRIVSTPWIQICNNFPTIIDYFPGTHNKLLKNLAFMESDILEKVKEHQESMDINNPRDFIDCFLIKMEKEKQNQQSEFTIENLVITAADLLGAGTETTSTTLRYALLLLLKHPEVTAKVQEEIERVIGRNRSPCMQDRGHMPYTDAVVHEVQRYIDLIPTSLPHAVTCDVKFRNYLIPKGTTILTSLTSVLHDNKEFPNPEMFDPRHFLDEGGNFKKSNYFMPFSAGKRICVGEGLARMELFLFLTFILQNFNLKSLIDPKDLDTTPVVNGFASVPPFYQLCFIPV
T1 sequence (P08684 whole entry): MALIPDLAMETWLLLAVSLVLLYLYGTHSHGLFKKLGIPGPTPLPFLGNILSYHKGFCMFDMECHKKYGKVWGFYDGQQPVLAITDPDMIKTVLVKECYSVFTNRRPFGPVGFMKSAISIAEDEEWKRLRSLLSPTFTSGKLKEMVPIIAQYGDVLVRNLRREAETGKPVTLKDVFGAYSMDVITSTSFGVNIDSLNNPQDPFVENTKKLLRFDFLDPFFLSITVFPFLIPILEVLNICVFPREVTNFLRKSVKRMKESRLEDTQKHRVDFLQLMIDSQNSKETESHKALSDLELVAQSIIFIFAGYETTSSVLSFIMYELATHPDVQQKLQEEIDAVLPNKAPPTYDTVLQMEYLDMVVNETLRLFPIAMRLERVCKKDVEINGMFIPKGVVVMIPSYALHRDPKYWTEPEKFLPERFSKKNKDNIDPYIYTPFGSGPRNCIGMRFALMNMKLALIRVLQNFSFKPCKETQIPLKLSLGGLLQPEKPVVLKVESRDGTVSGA
T4 sequence (P11712 whole entry): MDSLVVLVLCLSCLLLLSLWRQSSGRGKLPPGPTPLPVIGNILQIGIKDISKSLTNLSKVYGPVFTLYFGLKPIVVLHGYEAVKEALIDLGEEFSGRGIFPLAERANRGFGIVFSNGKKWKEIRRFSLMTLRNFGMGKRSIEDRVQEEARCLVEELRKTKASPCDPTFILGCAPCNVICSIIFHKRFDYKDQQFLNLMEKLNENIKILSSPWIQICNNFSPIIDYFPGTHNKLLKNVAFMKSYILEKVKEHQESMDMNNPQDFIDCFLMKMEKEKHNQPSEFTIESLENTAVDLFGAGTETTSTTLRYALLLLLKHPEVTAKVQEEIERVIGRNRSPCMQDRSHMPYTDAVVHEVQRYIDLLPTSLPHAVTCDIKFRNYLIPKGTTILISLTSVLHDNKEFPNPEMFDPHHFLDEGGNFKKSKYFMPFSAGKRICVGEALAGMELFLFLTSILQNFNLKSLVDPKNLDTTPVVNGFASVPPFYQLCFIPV

Broadly, the IC50 is the concentration needed to halve the response being measured. Low values mean inhibition by little substance, high ones a need for much substance. Usually fraction unbound stands for free concentration divided by total concentration. A high value points to weak binding. Regarding `COCCCOc1cc2c(cc1OC)-c1cc(=O)c(C(=O)O)cn1[C@H](C(C)(C)C)CO2` [Embodiment 6], the half-inhibitory concentration (IC50) at CYP3A4-M, on CYP2C19, against CYP2D6, on CYP2C9 and at CYP1A2 was greater than 50 µM in each case. In data set [1], this compound had a fraction unbound at 4 h, 2 μM of 0.406.
